Consider one molecule from patent US20150352108A1, “AMINO-PYRIMIDINE COMPOUNDS AS INHIBITORS OF TBK1 AND/OR IKK EPSILON” (Alzheimer's Institute of America, priority 2009, published 2015).

In general, IC50 refers to the point on the concentration scale where inhibition reaches its midpoint. Low values mean higher potency, high ones lower potency.

The test system of one assay is IFN-β production. In words: Inhibition of IFN-β production (similar assay to HFLS-RA RANTES/IP-10). The note with it: Homo sapiens. In kind it is cell-based. As to the method:
HFLS cells (HFLS-RA) isolated from patients with rheumatoid arthritis were obtained from Cell Applications, Inc. (San Diego, Calif.). Cells were seeded in synoviocyte growth medium (Cell Applications, Inc., San Diego, Calif.) and allowed to grow overnight. The following day, media was replaced and cells were treated with varying concentrations of selected compounds according to Formula I (e.g., Example Compound 5) (0.1% final DMSO concentration). Two hours later, cells were induced with 50 µg/mL Poly(I:C) (Sigma-Aldrich, St. Louis, Mo.). Supernatants were collected 20 hours post-induction and used to monitor RANTES and IP-10 levels using DuoSet ELISA kits (Human CXCL10/IP-10 DuoSet & Human CCL5/RANTES DuoSet; R&D Systems, Inc., Minneapolis, Minn.).
Using a similar assay Compound 5 was also found to inhibit production of IFN-β with an IC50 of about 40 nM

In assay [1] the test system is IKKε-mediated phosphorylation of IRF7. Put plainly: In-situ IKKε-mediated phosphorylation of IRF7 in HEK293T cells (Western blot). The class given is cell-based. On the technique in general: A western blot detects proteins with antibodies after separation by electrophoresis.
In another assay the test system is BLyS mRNA, SLE PBMCs. Put plainly: Agonist induced BLyS mRNA in PBMCs from SLE patients (qRT-PCR). The class given is cell-based, human. The note with it: LMW poly(I:C), serial dilutions. The text has this:
(§1) To determine if inhibition of IKKε and/or TBK1 modulates nucleic acid agonist induced gene expression, high molecular weight poly(I:C) (MDA5 agonist) and low weight poly(I:C) (RIG-I agonist) were electroporated into human peripheral blood mononuclear cells (PBMCs) obtained from normal donors, or low molecular weight Poly(I:C) was electroporated into PBMCs from donors that have Systemic Lupus Erythematosus (SLE). Induction of IFN-α2, IFN-β, and BLyS mRNA production was monitored by qRT-PCR.
(§2) Human PBMCs were collected from healthy donors using routine laboratory procedures. PBMCs from SLE patients were purchased from Astarte Biologics (Redmond, Wash.). The PBMCs were electroporated using Nucleofector® Kit V (Lonza, Walkersville, Md.) with 0.4 ug/mL of high molecular weight poly (I:C) (InvivoGen, San Diego, Calif.) or 0.4 ug/mL low molecular weight poly (I:C) (InvivoGen, San Diego, Calif.) and seeded into wells containing serial dilutions of Example Compound 5 (0.1% final DMSO concentration). […] RNA was quantitated using Quant-iT™ RiboGreen® RNA Assay Kit (Invitrogen, Carlsbad, Calif.). Reverse transcription and real-time PCR were performed using the QuantiTect Probe RT-PCR Kit (Qiagen, Germantown, Md.) and the 7300 Real-Time PCR System (Applied Biosytems, Foster City, Calif.). […]

The subject of assay [2] is Poly(I:C)-induced innate/adaptive immune and IFNα/β-regulated genes, HFLS-RA cells. In words: Genes modulated by IKKε/TBK1 inhibition in HFLS-RA cells (qRT-PCR arrays, Poly(I:C)). In kind it is cell-based, human. The note with it: 500 nM pre-treatment. The method, then:
IKKε and TBK1 play important roles in modulating several innate/adaptive immune and interferon-regulated genes in response to bacterial and viral infections. To identify genes that are under the control of IKKε and TBK1 kinase activity HFLS-RA cells (Cell Applications, Inc., San Diego, Calif.) were pretreated with a compound according to Formula I (Example Compound 5) (0.5 uM), and then treated with the TLR3 agonist Poly(I:C). A focused RT-PCR array containing either 84 innate/adaptive immune-regulated or 84 IFNα/β-regulated genes were probed by qRT-PCR using mRNA isolated from the treated cells, as well as from untreated control cells, according to the following protocol.
HFLS cells isolated from patients with RA were obtained from Cell Applications, Inc. (HFLS-RA, Cell Applications, Inc., San Diego, Calif.). Cells were seeded in synoviocyte growth medium (Cell Applications, Inc., San Diego, Calif.) and allowed to grow overnight. The following day, media was replaced and cells were treated with 500 nM of Example Compound 5 (0.1% final DMSO concentration). Two hours later, cells were induced with 50 µg/mL Poly(I:C) (Sigma-Aldrich, St. Louis, Mo.). […] RNA was quantitated using Quant-iT™ RiboGreen® RNA Assay Kit (Invitrogen, Inc., Carlsbad, Calif.). […]
(In general: Quantitative PCR measures a nucleic acid by following its amplification.)

The test system of another assay is IFN-α2 mRNA, SLE PBMCs. In words: Agonist induced IFN-α2 mRNA in PBMCs from SLE patients (qRT-PCR). In kind it is cell-based, human. The note with it: LMW poly(I:C), serial dilutions.
Source text: as §1, §2

The next assay relates to IFN-β1 mRNA, SLE PBMCs. Put plainly: Agonist induced IFN-β1 mRNA in PBMCs from SLE patients (qRT-PCR). In kind it is cell-based, human. The note with it: LMW poly(I:C), serial dilutions.
Source text: as §1, §2

On to `N#Cc1cc(-c2ccnc(Nc3ccc(N4CCOCC4)cc3)n2)ccc1OC1CCOCC1` [Example 5, 5-(2-{[4-(Morpholin-4-yl)phenyl]amino}pyrimidin-4-yl)-2-(tetrahydro-2H-pyran-4-yloxy)benzaonitrile], for which the IC50 in the assay with IFN-β production is about 40 nM. Moreover, in assay [1], the “inhibition of IKKε-mediated phosphorylation of IRF7” value is listed as “inhibit”. Also, the “induction of BLyS mRNA” value in the assay with BLyS mRNA, SLE PBMCs is “potently inhibited”. Further, in assay [2], the “induction of genes normally induced by Poly(I:C) treatment” value is reported as “potently inhibited”. For the same molecule, in the assay with IFN-α2 mRNA, SLE PBMCs, the “induction of IFN-α2 mRNA” value is listed as “potently inhibited”. For the same molecule, the “induction of IFN-β1 mRNA” value in the assay on IFN-β1 mRNA, SLE PBMCs is “potently inhibited”.
